Data as given in PubChem BioAssay AID1963970 (Molecular Pharmacology Branch, DTP, NCI, 2024).

Test system: 931267-113-T-J1-PDC multicell spheroid viability
Assay: Anticancer human tumor 931267-113-T-J1-PDC patient-derived colon adenocarcinoma cell line growth inhibition [PI3K]
Conditions: for IC50: curve of first compound; for viability, T/C: stronger effect = lower value
Outline: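 Agents were dosed from a top concentration near clinical Cmax (otherwise 10 microM) in half-log decrements, alone or combined with PI3K inhibitors. The spheroids contain tumor cells plus endothelial (HUVEC) and MSC stroma; viability is measured.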

[1] = second compound 0.0316 µM, first compound 0.0316 µM
[2] = second compound 0.0316 µM, first compound 0.1 µM
[3] = second compound 0.0316 µM, first compound 0.316 µM
[4] = second compound 0.0316 µM, first compound 1 µM
[5] = second compound 0.0316 µM, first compound 3.16 µM
[6] = second compound 0.0316 µM, first compound 10 µM
[7] = second compound 0.1 µM, first compound 0.0316 µM
[8] = second compound 0.1 µM, first compound 0.1 µM
[9] = second compound 0.1 µM, first compound 0.316 µM
[10] = second compound 0.1 µM, first compound 1 µM
[11] = second compound 0.1 µM, first compound 3.16 µM
[12] = second compound 0.1 µM, first compound 10 µM
[13] = second compound 0.316 µM, first compound 0.0316 µM
[14] = second compound 0.316 µM, first compound 0.1 µM
[15] = second compound 0.316 µM, first compound 0.316 µM
[16] = second compound 0.316 µM, first compound 1 µM
[17] = second compound 0.316 µM, first compound 3.16 µM
[18] = second compound 0.316 µM, first compound 10 µM
[19] = second compound 1 µM, first compound 0.0316 µM
[20] = second compound 1 µM, first compound 0.1 µM
[21] = second compound 1 µM, first compound 0.316 µM
[22] = second compound 1 µM, first compound 1 µM
[23] = second compound 1 µM, first compound 3.16 µM
[24] = second compound 1 µM, first compound 10 µM
[25] = second compound 3.16 µM, first compound 0.0316 µM
[26] = second compound 3.16 µM, first compound 0.1 µM
[27] = second compound 3.16 µM, first compound 0.316 µM
[28] = second compound 3.16 µM, first compound 1 µM
[29] = second compound 3.16 µM, first compound 3.16 µM
[30] = second compound 3.16 µM, first compound 10 µM
[31] = second compound 10 µM, first compound 0.0316 µM
[32] = second compound 10 µM, first compound 0.1 µM
[33] = second compound 10 µM, first compound 0.316 µM
[34] = second compound 10 µM, first compound 1 µM
[35] = second compound 10 µM, first compound 3.16 µM
[36] = second compound 10 µM, first compound 10 µM
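Note: viability read 7 days after compound addition.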

`CC(C)NCC(C(=O)N1CCN(c2ncnc3c2C(C)CC3O)CC1)c1ccc(Cl)cc1` (stereo unspecified) + CC(Nc1ncnc2nc[nH]c12)c1cc2cccc(Cl)c2c(=O)n1-c1ccccc1 showed an IC50 (second compound 0.0316 µM) greater than 10 µM, an IC50 (second compound 0.1 µM) greater than 10 µM and an IC50 (second compound 0.316 µM) greater than 10 µM. The IC50 (second compound 1 µM) was greater than 10 µM, the IC50 (second compound 3.16 µM) was greater than 10 µM and the IC50 (second compound 10 µM) was greater than 10 µM. For the same molecule, the viability, T/C [1] was 97.2%, the viability, T/C [2] was 99.5% and the viability, T/C [3] was 92.1%. For the same molecule, the viability, T/C [4] was 101%, the viability, T/C [5] was 97.1% and the viability, T/C [6] was 81.6%. For the same molecule, the viability, T/C [7] was 108%, the viability, T/C [8] was 95.6% and the viability, T/C [9] was 100%. It also gave a viability, T/C [10] of 98.8%, a viability, T/C [11] of 97.1% and a viability, T/C [12] of 74.7%. For the same molecule, the viability, T/C [13] was 108%, the viability, T/C [14] was 107% and the viability, T/C [15] was 106%. For the same molecule, the viability, T/C [16] was 94.7%, the viability, T/C [17] was 99.6% and the viability, T/C [18] was 85%. For the same molecule, the viability, T/C [19] was 105%, the viability, T/C [20] was 107% and the viability, T/C [21] was 93%. For the same molecule, the viability, T/C [22] was 99.6%, the viability, T/C [23] was 99.1% and the viability, T/C [24] was 80.7%. It also gave a viability, T/C [25] of 103%, a viability, T/C [26] of 100% and a viability, T/C [27] of 89.7%. The viability, T/C [28] was 94.6%, the viability, T/C [29] was 90.9% and the viability, T/C [30] was 71.7%. The viability, T/C [31] was 95.2%, the viability, T/C [32] was 86% and the viability, T/C [33] was 86.8%. It also gave a viability, T/C [34] of 87.7%, a viability, T/C [35] of 88.7% and a viability, T/C [36] of 75.1%.
`CC1(C)CCC(Nc2ncc(C(F)(F)F)c(-c3c[nH]c4c(P(C)(C)=O)c(C#N)ccc34)n2)CN1` (stereo unspecified) + Cc1nc(NC(=O)N2CCCC2C(N)=O)sc1-c1ccnc(C(C)(C)C(F)(F)F)c1 was tested, and the IC50 (second compound 0.0316 µM) was greater than 10 µM, the IC50 (second compound 0.1 µM) was greater than 10 µM and the IC50 (second compound 0.316 µM) was greater than 10 µM. It also gave an IC50 (second compound 1 µM) greater than 10 µM, an IC50 (second compound 3.16 µM) of 9.36 µM and an IC50 (second compound 10 µM) of 3.31 µM. For the same molecule, the viability, T/C [1] was 101%, the viability, T/C [2] was 93.7% and the viability, T/C [3] was 83.2%. The viability, T/C [4] was 74.1%, the viability, T/C [5] was 70.9% and the viability, T/C [6] was 58.2%. The viability, T/C [7] was 94.5%, the viability, T/C [8] was 70.2% and the viability, T/C [9] was 70.7%. For the same molecule, the viability, T/C [10] was 70.5%, the viability, T/C [11] was 77.9% and the viability, T/C [12] was 58%. The viability, T/C [13] was 79.6%, the viability, T/C [14] was 79% and the viability, T/C [15] was 80.4%. The viability, T/C [16] was 67.6%, the viability, T/C [17] was 74.5% and the viability, T/C [18] was 54.6%. It also gave a viability, T/C [19] of 82%, a viability, T/C [20] of 77.6% and a viability, T/C [21] of 70.7%. For the same molecule, the viability, T/C [22] was 69.6%, the viability, T/C [23] was 62.3% and the viability, T/C [24] was 52.2%. The viability, T/C [25] was 75%, the viability, T/C [26] was 65.5% and the viability, T/C [27] was 60.6%. For the same molecule, the viability, T/C [28] was 63.2%, the viability, T/C [29] was 61.5% and the viability, T/C [30] was 46%. The viability, T/C [31] was 54%, the viability, T/C [32] was 50.6% and the viability, T/C [33] was 49.8%. The viability, T/C [34] was 47%, the viability, T/C [35] was 52.7% and the viability, T/C [36] was 30.4%.
`Cn1ncc(Cl)c1-c1cc(C(=O)NC(CN)Cc2cccc(F)c2)sc1Cl` (stereo unspecified) + Cc1nc(NC(=O)N2CCCC2C(N)=O)sc1-c1ccnc(C(C)(C)C(F)(F)F)c1 gave an IC50 (second compound 0.0316 µM) of 6.31 µM, an IC50 (second compound 0.1 µM) of 5.39 µM and an IC50 (second compound 0.316 µM) of 5.52 µM. The IC50 (second compound 1 µM) was 4.31 µM, the IC50 (second compound 3.16 µM) was 4.15 µM and the IC50 (second compound 10 µM) was 2.63 µM. For the same molecule, the viability, T/C [1] was 97.3%, the viability, T/C [2] was 89% and the viability, T/C [3] was 88.7%. The viability, T/C [4] was 73.6%, the viability, T/C [5] was 79.7% and the viability, T/C [6] was 33.6%. For the same molecule, the viability, T/C [7] was 101%, the viability, T/C [8] was 86% and the viability, T/C [9] was 91.4%. For the same molecule, the viability, T/C [10] was 85%, the viability, T/C [11] was 68.3% and the viability, T/C [12] was 29.4%. It also gave a viability, T/C [13] of 89.3%, a viability, T/C [14] of 94% and a viability, T/C [15] of 83.2%. For the same molecule, the viability, T/C [16] was 85.9%, the viability, T/C [17] was 68.2% and the viability, T/C [18] was 30.2%. It also gave a viability, T/C [19] of 84.3%, a viability, T/C [20] of 84.7% and a viability, T/C [21] of 77%. For the same molecule, the viability, T/C [22] was 68.7%, the viability, T/C [23] was 59.9% and the viability, T/C [24] was 30.1%. For the same molecule, the viability, T/C [25] was 73.6%, the viability, T/C [26] was 61.7% and the viability, T/C [27] was 66.9%. The viability, T/C [28] was 63.8%, the viability, T/C [29] was 58.8% and the viability, T/C [30] was 23.5%. It also gave a viability, T/C [31] of 69.9%, a viability, T/C [32] of 61.6% and a viability, T/C [33] of 58.7%. It also gave a viability, T/C [34] of 60.5%, a viability, T/C [35] of 48.9% and a viability, T/C [36] of 21.9%.
